How the values were obtained:
[1] = molecular target: human TLR7 (Homo sapiens (Human), UniProt Q9NYK1); experiment: HEK-Blue TLR7 reporter assay (TLR7 agonism); format: cell-based; details: HEK-Blue TLR7 cells, SEAP reporter, 18 h treatment
Protocol: This example describes a method for assaying TLR7 agonist activity of the compounds disclosed in this specification.
HEK-Blue™ TLR7 cells were added to each well of a 384-well tissue-culture plate (15,000 cells per well) and incubated 16-18 h at 37° C., 5% CO2. Compounds (100 nl) were dispensed into wells containing the HEK-Blue™ TLR cells and the treated cells were incubated at 37° C., 5% CO2. After 18 h treatment ten microliters of freshly-prepared Quanti-Blue™ reagent (Invivogen) was added to each well, incubated for 30 min (37° C., 5% CO2) and SEAP levels measured using an Envision plate reader (OD=620 nm).

[2] = test system: interleukin 6 (IL-6); experiment: Interleukin 6 induction assay in human whole blood; format: cell-based; details: 37° C. for 20 h, AlphaLISA
Protocol: This example describes a method for assaying interleukin 6 induction by compounds disclosed in this specification.
Compounds diluted in DMSO were transferred to individual wells of a Matrix Tech-nologies clear, V-bottom 384-well plate using ECHO acoustic liquid handling technology (25 nL per well). Human whole-blood samples (25 uL) were added to each well using a CyBio FeliX liquid handling instrument. The plate was shaken on a plate shaker for three min before incubating the reaction mixtures at 37° C. for 20 h. Basel RPMI 1640 medium (supplemented with L-glutamine) was then added to each well (25 uL per well) prior to liberating plasma from each sample by centrifugation (450×g, 5 min, ambient temperature). Treated plasma samples (3 uL) were subsequently transferred to individual wells of a white, shallow, 384-well ProxiPlate (Perkin Elmer) using the FeliX liquid handling instrument and their interleukin 6 levels were measured using AlphaLISA technology as described by the manufacturer, PerkinElmer. Data analyses software was used to determine compound EC50 values where the baseline was established using average DMSO values and 100% induction established using reference compound values at the highest concentration tested. EC50's can be determined with software such as Graphpad Prism™.

[3] = test system: IFN-α; details: fold lower potency vs corresponding purine-8-one compound; cited from earlier work

Sequence of human TLR7 (Q9NYK1 27-1049): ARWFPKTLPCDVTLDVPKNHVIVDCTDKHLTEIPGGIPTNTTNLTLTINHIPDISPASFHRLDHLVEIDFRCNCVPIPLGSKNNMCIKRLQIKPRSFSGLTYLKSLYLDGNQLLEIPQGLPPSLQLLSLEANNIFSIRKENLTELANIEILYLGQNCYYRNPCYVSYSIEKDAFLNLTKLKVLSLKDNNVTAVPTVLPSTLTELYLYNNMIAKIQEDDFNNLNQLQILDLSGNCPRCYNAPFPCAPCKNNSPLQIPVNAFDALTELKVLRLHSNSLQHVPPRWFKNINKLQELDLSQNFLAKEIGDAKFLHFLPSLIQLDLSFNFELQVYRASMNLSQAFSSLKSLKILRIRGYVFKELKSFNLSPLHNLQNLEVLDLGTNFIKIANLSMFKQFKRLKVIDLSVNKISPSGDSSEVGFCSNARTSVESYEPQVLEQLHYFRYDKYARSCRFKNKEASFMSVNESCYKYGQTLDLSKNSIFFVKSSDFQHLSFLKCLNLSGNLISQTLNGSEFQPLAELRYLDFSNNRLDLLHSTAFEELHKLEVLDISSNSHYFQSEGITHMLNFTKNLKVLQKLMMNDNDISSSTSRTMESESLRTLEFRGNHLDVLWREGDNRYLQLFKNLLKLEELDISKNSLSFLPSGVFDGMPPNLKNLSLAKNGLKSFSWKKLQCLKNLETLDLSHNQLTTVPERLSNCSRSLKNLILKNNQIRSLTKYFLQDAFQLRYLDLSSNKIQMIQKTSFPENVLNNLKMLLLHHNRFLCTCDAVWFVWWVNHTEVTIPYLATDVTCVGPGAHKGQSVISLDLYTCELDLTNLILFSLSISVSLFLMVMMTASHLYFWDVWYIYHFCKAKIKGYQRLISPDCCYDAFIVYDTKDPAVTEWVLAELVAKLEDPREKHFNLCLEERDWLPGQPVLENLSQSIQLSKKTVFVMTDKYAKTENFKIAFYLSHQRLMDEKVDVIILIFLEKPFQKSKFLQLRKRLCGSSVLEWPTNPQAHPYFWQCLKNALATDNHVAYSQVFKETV

Question: For `CCCCOc1nc(N)c2nc(O)n(Cc3ccccc3)c2n1` [Compound B, reference compound], which EC50 [1] is on record?
Answer: The EC50 was 474 nM.

Question: For `CCCCOc1nc(N)c2nc(O)n(Cc3ccc(-c4cnn(CCO)c4)cc3)c2n1` [Ia-01], which EC50 [2] is on record?
Answer: Its EC50 is 108 nM.

Question: And the EC50 [1]?
Answer: The EC50 was 16 nM.

Question: Which results are given for `CCCCOc1nc(N)c2nc(O)n(Cc3ccc(-c4cnn(C5CNC5)c4)cc3)c2n1` [Ia-03]?
Answer: EC50 [2]: 15 nM; EC50 [1]: 26 nM

Question: Which results are given for `CCCCOc1nc(N)c2nc(O)n(Cc3ccc(-c4cnn(CCNC5CCC5)c4)cc3)c2n1` [Ia-04]?
Answer: EC50 [2]: 6.9 nM; EC50 [1]: 7.5 nM

Question: With `CCCCOc1nc(N)c2nc(O)n(Cc3ccc(-c4cnn(CC(=O)NC5CNC5)c4)cc3)c2n1` [Ia-06] as the compound, how does the EC50 [2] read?
Answer: Its EC50 is 88.7 nM.

Question: And the EC50 [1]?
Answer: The EC50 was 24 nM.

Question: Which EC50 [2] does the source give for `CCCCOc1nc(N)c2nc(O)n(Cc3ccc(-c4csc(CN)c4)cc3)c2n1` [Ib-01] here?
Answer: Its EC50 is 106 nM.

Question: For `CCCCOc1nc(N)c2nc(O)n(Cc3ccc(-c4csc(CN)c4)nc3)c2n1` [Ib-02], which EC50 [2] is on record?
Answer: The EC50 was 7.55 nM.

Question: For `CCCCOc1nc(N)c2nc(O)n(Cc3ccc(-c4nc(CO)co4)cc3)c2n1` [Ic-01], which EC50 [2] is on record?
Answer: The EC50 was 365 nM.

Question: And the EC50 [1]?
Answer: The EC50 was 99 nM.

Question: Which “potency less than that of the corresponding purine-8-one compound, as measured by IFN-α induction” value [3] does the source give for `CCCCOc1nc(N)c2c(n1)N(Cc1cccc(CN3CCCC3)c1)CC(=O)N2` [Vesatolimod, vesatolimod] here?
Answer: The value was 100 ×.

From US10487084B2, “Toll-like receptor 7 (TLR7) agonists having a heterobiaryl moiety, conjugates thereof, and methods and uses therefor” (BRISTOL-MYERS SQUIBB COMPANY, priority 2017, dated 2019)
